Test results reported in US9901649B2, “Block copolymers for therapeutic drug delivery” (INTERNATIONAL BUSINESS MACHINES CORPORATION, priority 2016, dated 2018).
In brackets after ≈: the same amount, converted by molar mass.

Key:
NCCFH-01 cells = assay: In vitro cytotoxicity, MTT assay; format: cell-based; details: 48 hours, 37° C., pH 7.4, read-out: half maximal inhibitory concentration IC50
Procedure: BT-474 human breast cancer cell line was purchased from ATCC (Manassas, Va., U.S.A). Hereditary leiomyomastosis and renal cancer cells (NCCFH-01 cell line) was obtained from Dr. Min-Han Tan, Institute of Bioengineering and Nanotechnology, Singapore. Cells were cultured in RPMI-1640 medium containing 25 mM Hepes and L-Glutamine (Lonza, Singapore) supplemented with 10% fetal bovine serum (FBS), 100 U/mL penicillin and 100 μg/mL streptomycin at 37° C. in 5% CO2. 3-[4,5-Dimenthylthiazol-2-yl]-2,5-diphenyl tetrazolium bromide (MTT) was dissolved in phosphate-buffered saline (PBS, pH 7.4) with a concentration of 5 mg/mL, and the solution was filtered with a 0.22 micrometer filter to remove blue formazan crystals prior to usage.
Cytotoxicity of free DOX, DOX-loaded particles, and blank particles was determined through MTT assay. BT-474 cells and NCCFH-01 cells were seeded into 96-well plates at a density of 5×10^3 cells per well and incubated overnight in 100 microliters of RPMI-1640 containing 25 mM Hepes and L-Glutamine, supplemented with 10% FBS and 5% penicillin-streptomycin at 37 C, 5% CO2. […] After gentle agitation for 15 minutes, the absorbance of formazan crystals was taken to be that at 550 nm subtracted by that at 690 nm (TECAN, Switzerland). Cell viability was expressed as a percentage of absorbance of the control cells.

[1] = Mouse body weight change during the in vivo treatments; set-up: species or system female BALB/c nude mice; details: nude mice bearing BT-474 xenografts; DOX 5 mg/kg, tail vein injection at day 0, 3, 6 and 10
Procedure: Female BALB/c nude mice were provided by Singapore Biological Research Center (BRC) at 6 weeks of age (20-22 g). All animal studies were adhered to protocols approved by the Singapore BRC's Institutional Animal Care and Use Committee. BT-474 cells (1×10^7) were suspended in 200 microliters of a solution containing Matrigel and PBS (volume ratio: 50/50) and subcutaneously injected into the right flank of female BALB/c nude mice. Estradiol pellet (0.72 mg/pellet, 60 days release) was subcutaneously administered into mice one day before the inoculation. Once the tumor volume reached about 200 mm^3 on the 14th day (recorded as day 0), the mice were randomly divided into 5 groups (7-8 animals per group): group 1 for 0.9% saline as control, group 2 for blank particles, group 3 for free DOX, group 4 for DOX-loaded particles LM-1, and group 5 for DOX-loaded particles LM-2. The dose of DOX in all formulations was 5 mg/kg. The formulations were given to mice via tail vein injection at day 0, 3, 6 and 10. At the predetermined time points, mice were weighed and tumor size was measured with a Vernier caliper. The tumor volume was calculated using the following formula: Tumor volume=length×width^2/2.

`COc1cccc2c1C(=O)c1c(O)c3c(c(O)c1C2=O)C[C@@](O)(C(=O)CO)C[C@@H]3O[C@H]1C[C@H](N)[C@H](O)[C@H](C)O1` [DOX, Doxorubicin] showed an IC50 (NCCFH-01 cells) of 12.7 µg/mL (≈ 23.4 µM) and a body weight loss [1] of 20%.
